Laboratory results published in PubChem BioAssay (NCI).
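Results reflect a 48-hour exposure of cells in 96-well plates to compound at five concentrations. At the TGI there is no net growth.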

Tests used:
Assay in all cases: NCI tumour cell line growth inhibition, 48 h
P388/ADR leukemia = test system: P388/ADR leukemia
LXFL 529 NSCLC = test system: LXFL 529 NSCLC
RXF-631 renal = test system: RXF-631 renal

Row | SMILES | TGI (P388/ADR leukemia) | TGI (LXFL 529 NSCLC) | TGI (RXF-631 renal)
1 | CSCC(CO)NC(=O)/C=C/c1c(C)[nH]c(=O)[nH]c1=O (stereo unspecified) | > 875 µM | – | –
2 | c1ccc2c(c1)SCCc1cn[nH]c1-2 | > 100 µM | – | –
3 | Nc1ccc(Cn2ccc3c4c(N)nc(N)nc4ccc32)cc1 | – | 15.7 µM | –
4 | O=S(O)CCCSSSCCCS(=O)O | – | > 100 µM | > 100 µM
5 | Cc1cccc2c1Sc1ccccc1C2NC(=O)CN(C)C (stereo unspecified) | – | > 100 µM | –
6 | CN(c1ccccc1)c1nc(=[N+]2CCCC2)ss1 | – | > 100 µM | > 100 µM
7 | CO/C=C1\OC(=O)C=C1OC | > 100 µM | – | –
8 | CN(C)c1cccc(OC(=O)NCCCl)c1 | > 100 µM | – | –
9 | c1ccc2c(c1)SP1Sc3ccccc3P21 (stereo unspecified) | > 100 µM | – | –
